According to ChEMBL document CHEMBL1131717, “Uncarinic acids: phospholipase Cgamma1 inhibitors from hooks of Uncaria rhynchophylla” (Bioorg Med Chem Lett, 1999):
In brackets after ≈: the same amount, converted by molar mass.

Experiments:
A549 = test: Growth inhibitory effect of compound was measured on A-549 human lung adenocarcinoma cancer cell line; type: functional, cell-based
HCT-15 = test: Growth inhibitory effect of compound was measured on HCT-15 human colon adenocarcinoma cancer cell line; type: functional, cell-based
HT1197 = test: Growth inhibitory effect of compound was measured on HT1197 human bladder adenocarcinoma cancer cell line; type: functional, cell-based
[1] = biological target: T1, 1-phosphatidylinositol 4,5-bisphosphate phosphodiesterase gamma-1 (Homo sapiens, UniProt P19174); test: Inhibitory concentration was evaluated against phospholipase C-gamma1
T1 sequence (P19174 whole entry): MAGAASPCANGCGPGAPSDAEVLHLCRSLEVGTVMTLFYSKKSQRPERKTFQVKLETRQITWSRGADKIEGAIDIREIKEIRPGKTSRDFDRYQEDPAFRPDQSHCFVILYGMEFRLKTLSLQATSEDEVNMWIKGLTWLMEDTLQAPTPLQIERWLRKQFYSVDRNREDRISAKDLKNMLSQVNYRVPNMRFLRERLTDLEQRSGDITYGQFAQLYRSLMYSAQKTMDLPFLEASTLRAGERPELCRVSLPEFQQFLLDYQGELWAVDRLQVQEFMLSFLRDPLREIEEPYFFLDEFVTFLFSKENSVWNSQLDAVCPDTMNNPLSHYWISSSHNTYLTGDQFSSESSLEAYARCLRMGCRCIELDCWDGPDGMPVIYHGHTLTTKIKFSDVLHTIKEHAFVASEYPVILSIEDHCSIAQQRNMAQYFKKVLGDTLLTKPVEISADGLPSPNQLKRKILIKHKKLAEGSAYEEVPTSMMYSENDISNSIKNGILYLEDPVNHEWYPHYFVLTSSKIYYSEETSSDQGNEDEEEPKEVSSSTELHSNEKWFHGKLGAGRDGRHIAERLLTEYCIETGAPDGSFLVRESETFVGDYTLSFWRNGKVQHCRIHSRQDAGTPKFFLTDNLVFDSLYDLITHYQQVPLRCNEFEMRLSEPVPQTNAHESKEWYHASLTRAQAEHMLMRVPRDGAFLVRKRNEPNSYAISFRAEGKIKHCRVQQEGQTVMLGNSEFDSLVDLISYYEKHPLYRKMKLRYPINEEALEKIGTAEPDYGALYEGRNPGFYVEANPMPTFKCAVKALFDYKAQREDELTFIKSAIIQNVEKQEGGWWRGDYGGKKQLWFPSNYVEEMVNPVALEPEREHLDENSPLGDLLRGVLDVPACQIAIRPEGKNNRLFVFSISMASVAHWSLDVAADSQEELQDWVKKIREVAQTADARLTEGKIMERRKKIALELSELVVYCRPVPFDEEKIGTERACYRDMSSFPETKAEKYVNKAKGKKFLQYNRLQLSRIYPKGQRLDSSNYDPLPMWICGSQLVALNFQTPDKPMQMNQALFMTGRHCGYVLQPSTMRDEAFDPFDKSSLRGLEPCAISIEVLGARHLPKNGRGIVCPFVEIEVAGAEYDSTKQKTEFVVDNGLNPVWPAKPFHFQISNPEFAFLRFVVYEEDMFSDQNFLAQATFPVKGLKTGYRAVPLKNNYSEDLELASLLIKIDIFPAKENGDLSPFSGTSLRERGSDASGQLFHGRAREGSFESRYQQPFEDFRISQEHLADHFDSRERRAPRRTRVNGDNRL

MCF7 = test: Growth inhibitory effect of compound was measured on MCF-7 human breast adenocarcinoma cancer cell line; type: functional, cell-based

| IC50 (A549) | IC50 (HCT-15) | IC50 [1] | IC50 (MCF7) | Compound | IC50 (HT1197) |
| --- | --- | --- | --- | --- | --- |
| 0.73 µg/mL (≈ 1.13 µM) | 1.41 µg/mL (≈ 2.17 µM) | 35.7 µM | 2.03 µg/mL (≈ 3.13 µM) | COc1cc(/C=C/C(=O)OC[C@@]23CC[C@@]4(C(=O)O)CCC(C)(C)C[C@H]4C2=CCC2[C@@]4(C)CC[C@H](O)C(C)(C)C4CC[C@]23C)ccc1O (stereo not given in full) | 3.53 µg/mL (≈ 5.44 µM) |
| 1.79 µg/mL (≈ 2.76 µM) | 1.44 µg/mL (≈ 2.22 µM) | 44.6 µM | 2.59 µg/mL (≈ 3.99 µM) | COc1cc(/C=C\C(=O)OC[C@@]23CC[C@@]4(C(=O)O)CCC(C)(C)C[C@H]4C2=CCC2[C@@]4(C)CC[C@H](O)C(C)(C)C4CC[C@]23C)ccc1O (stereo not given in full) | 2.34 µg/mL (≈ 3.61 µM) |
